From patent publication US5124319A, “Benzimidazole phosphono-amino acids” (American Home Products Corporation, priority 1991, dated 1992)
Structures can show the parent of a compound that is named as a salt. Where two headings read alike, the source gives them in different places.

Assays:
NMDA-induced convulsions = assay: murine NMDA-induced convulsion assay (survival); type: in vivo, mice (male Swiss-albino, CD-1 strain); conditions: for ED50: Mus musculus, ip, 0.5 h
Description: The compounds of the invention are further tested for their in vivo ability to antagonize NMDA in the murine NMDA-induced convulsion assay.
Male Swiss-albino mice (CD-1 strain, Charles River) 18-22 grams in weight, after 18 hours of food deprivation, are habituated to an observation chamber for 30 minutes. The mice are pretreated with the representative test compound followed thirty minutes later with NMDA, 195 mg/kg, i.p., which is a dose normally causing 90% mortality resulting from motor seizures including uncontrollable hind leg scratching or limbs and/or torso muscle jerking with loss of righting reflex followed by death within the 30 minute observation period after NMDA administration. From the latter, the ED50 for survival is determined.
Data analyzed using the probit analysis program PS-NONLIN (Natural Response Rate Version). The output of this program contains the statistical significance of the slope of the dose-response and the ED 50% and 95% confidence limits for survival.

NMDA receptor = assay: [3H]CPP binding assay (displacement of tritiated CPP in rat frontal cortex homogenates); conditions: [3H]CPP 8 nM, 23° C., 15 min, pH 7.6
Description: The compounds of the invention are tested for their NMDA competitive antagonist activity by their ability to displace tritiated 3-(2-carboxypiperazine-4-yl)propyl-1-phosphonic acid (CPP), a known competitive NMDA antagonist, in rat frontal cortex homogenates in the in vitro [^3 H]CPP binding assay.
Rats are decapitated and their brains are immediately removed, weighed and placed in approximately 15 volumes of ice cold 10% sucrose. Each brain is homogenized using a Potter Elvehjem glass homogenizer (12 strokes at 840 rpm) equipped with a Teflon pestle. The homogenate is then centrifuged at 1,000×g. for 10 minutes. The resulting pellet is discarded and the supernatant is centrifuged at 20,000×g. for 20 minutes. The crude mitochondrial pellet is resuspended in ice cold distilled water and dispersed using a Brinkmann Polytron (PT-10 at setting of 6 for 30 seconds). The suspension is centrifuged at 8,000×g. for 20 minutes. The resulting supernatant and buffy coat is centrifuged at 48,000×g.for 20 minutes. The final crude synaptic membrane pellet is resuspended in ice cold distilled water and centrifuged at 48,000×g. for 20 minutes.
To facilitate removal of endogenous glutamate, the membranes are resuspended in 15 volumes of ice cold 50 mMolar TRIS (pH 7.6) containing 0.04% Triton X-100. The suspension is incubated at 37° C. for 15 minutes, and then centrifuged at 20,000×g. for 20 minutes. The pellet is washed (i.e., resuspended in ice cold TRIS buffer and centrifuged at 20,000×g. for 20 minutes) twice. The membrane pellet is finally resuspended in 15 volumes ice cold 50 mMolar TRIS, distributed to several centrifuge tubes and centrifuged at 20,000×g. for 20 minutes and the pellets are frozen (-70° C.) for subsequent use in binding assays.
For the binding assay, the membrane pellets are thawed and resuspended in 15 volumes ice cold 50 mMolar TRIS (pH 7.6) buffer. Triplicate samples (1000 μl) of the membrane suspension containing between 0.2 and 0.4 mg protein/ml are incubated at 23° C. for 15 minutes with 8 nM [^3 H]CPP (New England Nuclear), one of various test solutions, and buffer in a final incubation volume of 2 ml using plastic minivials (Skatron). The samples are then centrifuged at 48,000×g. for 20 minutes and the supernatants discarded. The pellets are digested with tissue solubilizer (NCS, Amersham; 500 μl/sample) for 1 hour. Hydrochloric acid (100 μl of 4N) is added to each sample to reduce chemiluminescence during subsequent counting. Scintillation cocktail (Aqasol, DuPont; 3.2 ml) is added to each of the minivials which are then capped and shaken for 15 minutes prior to counting. The vials are placed into a Packard 460 CD (or equivalent) counter for determination of radioactivity.
Total specific binding is defined as total binding less the binding in the presence of 1 mMolar NMDA. Specific binding in the presence of a test drug is expressed as a percent of total specific binding when no drug is present. When test compounds are examined for a dose-response relationship, the results are then plotted as the logit of % binding vs. the log of the test drug concentration. Linear regression analysis then yields a straight line from which an IC50 with 95% confidence limits can be calculated.

[1] = reference compounds, i.p., 30 min before NMDA 195 mg/kg i.p., 95% confidence interval, read-out: ED50 % for survival
[2] = standard compounds, read-out: IC50 ± S.E.M.
[3] = compounds of the invention, read-out: IC50
[4] = compounds of the invention, i.p., 30 min before NMDA 195 mg/kg i.p., read-out: ED50 (survival)

Work on `C[C@]12N[C@H](Cc3ccccc31)c1ccccc12` [MK-801, reference compound] yielded an ED50 (NMDA-induced convulsions; [1]) of 0.19 mg/kg.

Compound `NC(CCCCCP(=O)(O)O)C(=O)O` (centres unmarked) [AP7, reference compound] has an IC50 (NMDA receptor; [2]) of 639 ± 129 nM.

In the case of `CN1C(=O)CN=C(c2ccccc2)c2cc(Cl)ccc21` [Diazepam, reference compound], the ED50 (NMDA-induced convulsions; [1]) is reported as 1.91 mg/kg.

In the case of `N[C@H](Cc1nc2ccc(Cl)cc2n1CP(=O)(O)O)C(=O)O` [Example 7, R-α-Amino-6-chloro-1-(phosphonomethyl)-1H-benzimidazole-2-propanoic acid, 0.8 hydrochloride, hydrate], the IC50 (NMDA receptor; [3]) is reported as 21.7 nM and the ED50 (NMDA-induced convulsions; [4]) is reported as less than 5 mg/kg.

With `Cc1cc2nc(C[C@@H](N)C(=O)O)n(CP(=O)(O)O)c2cc1C.Cl.Cl` [Example 3, R-α-Amino-5,6-dimethyl-1-(phosphonomethyl)-1H-benzimidazole-2-propanoic acid, dihydrochloride] the IC50 (NMDA receptor; [3]) was 123 nM and the “% survival” value (NMDA-induced convulsions; 3 mg/kg, 30 min before NMDA 195 mg/kg i.p.) was 10%.

In the case of `Cl.N[C@H](Cc1nc2cc(Cl)ccc2n1CP(=O)(O)O)C(=O)O` [Example 8, R-α-Amino-5-chloro-1-(phosphonomethyl)-1H-benzimidazole-2-propanoic acid hydrochloride], the IC50 (NMDA receptor; [3]) is reported as 7 nM and the ED50 (NMDA-induced convulsions; read-out: ED50 (survival)) is reported as 0.13 mg/kg.

`Cl.Cl.N[C@H](Cc1nc2ccccc2n1CP(=O)(O)O)C(=O)O.O.O` [Example 1, R-α-Amino-1-(phosphonomethyl)-1H-benzimidazole-2-propanoic acid, dihydrochloride, dihydrate] gave an IC50 (NMDA receptor; [3]) of 59 nM and an ED50 (NMDA-induced convulsions; read-out: ED50 (survival)) of 2 mg/kg.

For `Cl.Cl.N[C@H](Cc1nc2cc(Cl)c(Cl)cc2n1CP(=O)(O)O)C(=O)O` [Example 2, R-α-Amino-5,6-dichloro-1-(phosphonomethyl)-1H-benzimidazole-2-propanoic acid, dihydrochloride], the IC50 (NMDA receptor; [3]) was 18.2 nM and the ED50 (NMDA-induced convulsions; read-out: ED50 (survival)) was 2.7 mg/kg.

With `N[C@@H](Cc1nc2cc(Cl)c(Cl)cc2n1CP(=O)(O)O)C(=O)O` [Example 9, S-α-Amino-5,6-dichloro-1-(phosphonomethyl)-1H-benzimidazole-2-propanoic acid, dihydrate] the IC50 (NMDA receptor; [3]) was 1010 nM and the ED50 (NMDA-induced convulsions; [4]) was greater than 10 mg/kg.

`O=C(O)C1CN(CCCP(=O)(O)O)CCN1` (centres unmarked) [CPP, 3-(2-carboxypiperazine-4-yl)propyl-1-phosphonic acid, reference compound] was tested, and the ED50 (NMDA-induced convulsions; [1]) was 1.04 mg/kg.

For `N[C@@H](CCC(=O)O)C(=O)O` [L. Glutamic Acid, reference compound], the IC50 (NMDA receptor; [2]) was 64.3 ± 4.7 nM.
